In PubChem BioAssay (NCI):
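48-hour exposure; five concentrations; linearly interpolated endpoints. The concentration for full growth arrest is given as TGI.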

Columns and labels:
Assay in all cases: growth of human tumour cells (NCI), 48 h
[1] = tested on: IGROV1 ovarian
[2] = tested on: SW-620 colon
[3] = tested on: MALME-3M melanoma
[4] = tested on: NCI-H23 lung
[5] = tested on: SK-MEL-28 melanoma
[6] = tested on: HCC-2998 colon
[7] = tested on: RXF 393 renal
[8] = tested on: HCT-116 colon
[9] = tested on: SF-539 CNS
[10] = tested on: A498 renal
[11] = tested on: UO-31 renal
[12] = tested on: EKVX NSCLC
[13] = tested on: HOP-18 NSCLC
[14] = tested on: A549 NSCLC
[15] = tested on: OVCAR-8 ovarian
[16] = tested on: HOP-92 NSCLC
[17] = tested on: SNB-78 CNS
[18] = tested on: LOX IMVI melanoma
[19] = tested on: KM12 colon
[20] = tested on: MOLT-4 leukemia
[21] = tested on: 786-0 renal
[22] = tested on: NCI-H522 lung
[23] = tested on: UACC-257 melanoma
[24] = tested on: SF-268 CNS
[25] = tested on: ACHN renal
[26] = tested on: LXFL 529 NSCLC
[27] = tested on: KM20L2 colon
[28] = tested on: OVCAR-5 ovarian
[29] = tested on: UACC-62 melanoma
[30] = tested on: OVCAR-3 ovarian
[31] = tested on: NCI-H460 lung
[32] = tested on: TK-10 renal
[33] = tested on: HCT-15 colon
[34] = tested on: SK-MEL-2 melanoma
[35] = tested on: SK-OV-3 ovarian
[36] = tested on: NCI-H226 lung
[37] = tested on: U251 CNS
[38] = tested on: OVCAR-4 ovarian
[39] = tested on: DMS 114 small cell lung
[40] = tested on: CCRF-CEM leukemia
[41] = tested on: SNB-19 CNS
[42] = tested on: HL-60(TB) leukemia
[43] = tested on: K-562 leukemia
[44] = tested on: SR leukemia
[45] = tested on: DLD-1 colon
[46] = tested on: HT29 colon
[47] = tested on: HOP-62 NSCLC
[48] = tested on: SN12C renal
[49] = tested on: M19-MEL melanoma
[50] = tested on: RPMI-8226 leukemia
[51] = tested on: M14 melanoma
[52] = tested on: COLO 205 colon
[53] = tested on: SF-295 CNS
[54] = tested on: CAKI-1 renal
[55] = tested on: SNB-75 CNS
[56] = tested on: DMS 273 small cell lung
[57] = tested on: SK-MEL-5 melanoma

CCc1cccc(CC)c1NC(=O)C(=O)Cc1nc2ccccc2o1
TGI [1]: > 100 µM
TGI [2]: > 100 µM
TGI [3]: > 100 µM
TGI [4]: > 100 µM
TGI [5]: > 100 µM
TGI [6]: > 100 µM
TGI [7]: > 100 µM
TGI [8]: > 100 µM
TGI [9]: > 100 µM
TGI [10]: > 100 µM
TGI [11]: > 100 µM
TGI [12]: > 100 µM
TGI [13]: > 100 µM
TGI [14]: > 100 µM
TGI [15]: > 100 µM
TGI [16]: > 100 µM
TGI [17]: > 100 µM
TGI [18]: > 100 µM
TGI [19]: > 100 µM
TGI [20]: > 100 µM
TGI [21]: > 100 µM
TGI [22]: > 100 µM
TGI [23]: > 100 µM
TGI [24]: > 100 µM
TGI [25]: > 100 µM
TGI [26]: > 100 µM
TGI [27]: > 100 µM
TGI [28]: > 100 µM
TGI [29]: > 100 µM
TGI [30]: > 100 µM
TGI [31]: > 100 µM
TGI [32]: > 100 µM
TGI [33]: > 100 µM
TGI [34]: > 100 µM
TGI [35]: > 100 µM
TGI [36]: > 100 µM
TGI [37]: > 100 µM
TGI [38]: > 100 µM
TGI [39]: > 100 µM
TGI [40]: > 100 µM
TGI [41]: > 100 µM
TGI [42]: > 100 µM
TGI [43]: > 100 µM
TGI [44]: > 100 µM
TGI [45]: > 100 µM
TGI [46]: > 100 µM
TGI [47]: > 100 µM
TGI [48]: > 100 µM
TGI [49]: > 100 µM
TGI [50]: > 100 µM
TGI [51]: > 100 µM
TGI [52]: > 100 µM
TGI [53]: > 100 µM
TGI [54]: > 100 µM

O=C1C=C(Nc2ccccc2C(=O)c2ccccc2)c2ccccc2C1=O
TGI [1]: > 100 µM
TGI [2]: > 100 µM
TGI [3]: > 100 µM
TGI [4]: > 100 µM
TGI [5]: > 100 µM
TGI [6]: > 100 µM
TGI [7]: > 100 µM
TGI [8]: > 100 µM
TGI [9]: > 100 µM
TGI [10]: > 100 µM
TGI [11]: > 100 µM
TGI [12]: > 100 µM
TGI [13]: > 100 µM
TGI [14]: > 100 µM
TGI [15]: > 100 µM
TGI [16]: > 100 µM
TGI [17]: > 100 µM
TGI [19]: > 100 µM
TGI [21]: > 100 µM
TGI [22]: 55.9 µM
TGI [23]: 27.9 µM
TGI [24]: > 100 µM
TGI [25]: > 100 µM
TGI [26]: > 100 µM
TGI [27]: > 100 µM
TGI [28]: > 100 µM
TGI [29]: > 100 µM
TGI [30]: > 100 µM
TGI [31]: > 100 µM
TGI [33]: > 100 µM
TGI [34]: > 100 µM
TGI [35]: > 100 µM
TGI [36]: > 100 µM
TGI [37]: > 100 µM
TGI [38]: > 100 µM
TGI [55]: > 100 µM
TGI [39]: > 100 µM
TGI [41]: > 100 µM
TGI [44]: > 100 µM
TGI [45]: > 100 µM
TGI [46]: > 100 µM
TGI [47]: > 100 µM
TGI [48]: > 100 µM
TGI [49]: 33.2 µM
TGI [50]: > 100 µM
TGI [51]: > 100 µM
TGI [52]: > 100 µM
TGI [56]: > 100 µM
TGI [53]: > 100 µM
TGI [54]: > 100 µM

O=C(CSc1nnc(Cc2ccccc2)o1)Nc1ccc(Cl)cc1Cl
TGI [1]: > 100 µM
TGI [2]: > 100 µM
TGI [3]: > 100 µM
TGI [4]: > 100 µM
TGI [5]: > 100 µM
TGI [6]: > 100 µM
TGI [7]: > 100 µM
TGI [8]: > 100 µM
TGI [9]: > 100 µM
TGI [10]: > 100 µM
TGI [11]: > 100 µM
TGI [13]: > 100 µM
TGI [14]: > 100 µM
TGI [57]: > 100 µM
TGI [15]: > 100 µM
TGI [17]: > 100 µM
TGI [18]: > 100 µM
TGI [19]: > 100 µM
TGI [20]: > 100 µM
TGI [21]: > 100 µM
TGI [22]: > 100 µM
TGI [23]: > 100 µM
TGI [24]: > 100 µM
TGI [25]: > 100 µM
TGI [26]: > 100 µM
TGI [27]: > 100 µM
TGI [28]: > 100 µM
TGI [29]: > 100 µM
TGI [30]: > 100 µM
TGI [31]: > 100 µM
TGI [32]: > 100 µM
TGI [33]: > 100 µM
TGI [34]: > 100 µM
TGI [35]: > 100 µM
TGI [36]: > 100 µM
TGI [37]: > 100 µM
TGI [38]: > 100 µM
TGI [55]: > 100 µM
TGI [39]: > 100 µM
TGI [40]: > 100 µM
TGI [41]: > 100 µM
TGI [42]: > 100 µM
TGI [43]: > 100 µM
TGI [45]: > 100 µM
TGI [46]: > 100 µM
TGI [47]: > 100 µM
TGI [48]: > 100 µM
TGI [49]: > 100 µM
TGI [50]: > 100 µM
TGI [51]: > 100 µM
TGI [52]: > 100 µM
TGI [56]: > 100 µM
TGI [53]: > 100 µM
TGI [54]: > 100 µM
